Each structure is given as a SMILES string. Residues, ends and D or L forms follow the SMILES beside them.

The nature of series [1]: pH-solubility profile of candidate peptides (HPLC of filtrate). The series is classed as physicochemical. The conditions noted are these: for solubility thermodynamic at 24 h: at a pH in the pH range of pH 6 to pH 8, 50 mM sodium phosphate, about 22° C. As for the experimental part: Stock solution A: 0.66 g […] of monobasic sodium phosphate monohydrate U.S.P. and 50 mg EDTA disodium dihydrate, U.S.P. were dissolved in 100 mL of WFI. The solution was filtered through a 0.2 micron filter
Stock solution B: 0.71 g […] of dibasic sodium phosphate U.S.P. were disolved in 100 ml WFI. The solution was filtered through a 0.2 micron filter.
Dispersions A and B were sonicated for 2 minutes for good homogeneity. A small volume was pipetted from each dispersion into a labeled eppendoff vial according to the following volume ratio:
The resultant solutions/suspensions were stored in the dark at about 22° C.±2 for 24 hours without agitation. The solutions were filtered and filtrates were analyzed for pH and peptide concentration.

The nature of series [2]: pH-stability profile of candidate peptides (percent degradant peak area by HPLC). As to conditions: 3, 2 and 1 mg/ml per peptide; 24 hours at about 5° C. and about 22° C.; common window within pH 6 to pH 8. The method, then: The concentration of filtered peptide solutions was determined by HPLC analysis. In this experiment, the solubility of peptide at each pH is defined as the amount of peptide remaining in solution after filtration through a membrane filter having a 0.2 micrometer pore size. The extent of degradation of peptides was estimated by calculating the percent of total degradant peak area over the total peak area.

As to `CC[C@H](C)[C@H](NC(=O)[C@H](CCC(=O)O)NC(=O)[C@@H](NC(=O)[C@H](CCCCN)NC(=O)[C@H](C)NC(=O)[C@@H](NC(=O)[C@H](CCCCN)NC(=O)[C@@H](NC(=O)[C@H](CC(N)=O)NC(=O)[C@H](CCC(N)=O)NC(=O)[C@H](CC(N)=O)NC(=O)[C@H](C)NC(=O)[C@H](CCC(=O)O)NC(=O)[C@H](Cc1ccccc1)NC(=O)[C@@H](NC(=O)[C@H](C)NC(=O)[C@H](CCC(=O)O)NC(=O)[C@H](CC(C)C)NC(=O)[C@H](CCC(N)=O)NC(=O)[C@H](CCCCN)NC(=O)[C@@H](N)CC(=O)O)C(C)C)[C@@H](C)O)[C@@H](C)O)[C@@H](C)CC)C(=O)N[C@@H](CCCCN)C(=O)N[C@@H](C)C(=O)N[C@@H](CO)C(=O)N[C@H](C(=O)N[C@@H](CC(=O)O)C(=O)N[C@@H](CCC(=O)O)C(=O)O)[C@@H](C)CC` [DP II-22.5] (H-DKQLEAVFEANQNTKTAKIEIKASIDE-OH; N-terminus and C-terminus assumed), the “solubility (in words, against the superior solubility standard of 3 mg/ml)” value in series [1] (development of DPII-22.14 from DpII-22) is listed as “very soluble”.

By solubility (thermodynamic) is commonly meant the concentration in solution at equilibrium with solid. Regarding `CC[C@H](C)[C@H](NC(=O)CNC(=O)[C@H](CCC(=O)O)NC(=O)[C@@H](N)CC(=O)O)C(=O)N[C@@H](CCCCN)C(=O)N[C@@H](CC(=O)O)C(=O)N[C@@H](CC(C)C)C(=O)N[C@@H](CC(=O)O)C(=O)N[C@@H](C)C(=O)N[C@@H](Cc1ccccc1)C(=O)N[C@@H](CCCNC(=N)N)C(=O)N[C@@H](Cc1c[nH]cn1)C(=O)N[C@@H](Cc1ccc(O)cc1)C(=O)N[C@@H](CC(=O)O)C(=O)NCC(=O)N[C@@H](CCCNC(=N)N)C(=O)N[C@H](C(=O)N[C@H](C(=O)N[C@H](C(=O)N[C@@H](CCC(N)=O)C(=O)N[C@@H](CCCNC(=N)N)C(=O)N[C@@H](CC(=O)O)C(=O)N[C@@H](CC(N)=O)C(=O)NCC(=O)N[C@@H](Cc1ccc(O)cc1)C(=O)N[C@@H](CCC(=O)O)C(=O)O)[C@@H](C)CC)[C@@H](C)CC)[C@@H](C)O` [DP I-26.6] (H-DEGIKDLDAFRHYDGRTIIQRDNGYE-OH; N-terminus and C-terminus assumed), the solubility (thermodynamic) at 24 h in series [1] is above 3000 µg/mL. Moreover, in series [2], the “solution stability in equal concentration combination” value (shortened to “solution stability”) was “acceptable solution stability”.

The compound `CC(C)C[C@H](NC(=O)[C@H](Cc1ccc(O)cc1)NC(=O)[C@H](C)NC(=O)[C@H](CO)NC(=O)[C@H](CCC(=O)O)NC(=O)[C@@H](NC(=O)[C@H](C)NC(=O)[C@H](C)NC(=O)[C@@H](N)C(C)C)[C@@H](C)O)C(=O)N[C@@H](C)C(=O)N[C@@H](Cc1ccc(O)cc1)C(=O)N[C@@H](CCCNC(=N)N)C(=O)N[C@@H](CC(N)=O)C(=O)N[C@H](C(=O)N[C@@H](CO)C(=O)N[C@@H](CC(C)C)C(=O)N[C@@H](CC(=O)O)C(=O)N[C@@H](CC(C)C)C(=O)N[C@@H](CO)C(=O)N[C@@H](CCC(=O)O)C(=O)N[C@@H](CCC(N)=O)C(=O)N[C@@H](CCC(=O)O)C(=O)N[C@@H](CC(C)C)C(=O)N[C@H](C(=O)N[C@@H](CC(=O)O)C(=O)O)C(C)C)[C@@H](C)O` [DF I-22.2] (H-VAATESAYLAYRNTSLDLSEQELVD-OH; N-terminus and C-terminus assumed) returned a solubility (thermodynamic) at 24 h in series [1] above 3000 µg/mL. In series [2], the “solution stability” value is “acceptable solution stability”.

`CC(C)[C@H](NC(=O)CNC(=O)[C@H](CCC(=O)O)NC(=O)[C@H](CCC(=O)O)NC(=O)[C@@H](N)CC(=O)O)C(=O)N[C@H](C(=O)N[C@@H](CCC(N)=O)C(=O)N[C@@H](CCC(=O)O)C(=O)N[C@@H](CO)C(=O)N[C@@H](Cc1ccc(O)cc1)C(=O)N[C@@H](Cc1ccc(O)cc1)C(=O)N[C@@H](CCCNC(=N)N)C(=O)N[C@@H](Cc1ccc(O)cc1)C(=O)N[C@H](C(=O)N[C@@H](C)C(=O)N[C@@H](CCCNC(=N)N)C(=O)N[C@@H](CCC(=O)O)C(=O)N[C@@H](CCC(N)=O)C(=O)N[C@@H](CO)C(=O)N[C@@H](CS)C(=O)N[C@@H](CCCNC(=N)N)C(=O)N[C@@H](CCCNC(=N)N)C(=O)N1CCC[C@H]1C(=O)N[C@@H](CC(N)=O)C(=O)N[C@@H](C)C(=O)N[C@@H](CCC(=O)O)C(=O)O)C(C)C)C(C)C` [DP I-23.31] (H-DEEGVVQESYYRYVAREQSCRRPNAE-OH; N-terminus and C-terminus assumed) yielded a thermodynamic solubility at 24 h in series [1] above 3000 µg/mL. Further, the “solution stability” value in series [2] was “acceptable solution stability”.

Values taken from US7288256B1, “T cell epitopes of the major allergens from dermatophagoides (house dust mite)” (Merck Patent GmbH, priority 1991, dated 2007).
